Laboratory results: US6280763A, “Apparatus and method for transdermal delivery of bupropion” (priority 1999, dated 2001)
“And” between values parts separate entries of the source, which are not always exact repeats. Equal values may be shown once. Where a name gives a salt, the structure may show the parent alone. Read-outs that look alike come from different tables or passages of the source.

Tests used:
[1] = rats; cited from earlier work
[2] = humans; cited from earlier work
[3] = cited from earlier work
mice = settings: metabolites identified in urine; cited from earlier work
[4] = in vivo; cited from earlier work
[5] = cited from earlier work; for Half-lives (t1/2app): human, in vivo
[6] = oral administration; cited from earlier work
[7] = mouse, cited from earlier work
[8] = rats; cited from earlier work; remark: listed apart in the source
albumin = settings: cited from earlier work
[9] = drug content of 80% saturated donor solution in propylene glycol; type: physicochemical; settings: 80% of saturation, saturated at 32° C.
Procedure: For standardization, saturated solutions of bupropion in propylene glycol were made and 80% of the saturated solution was used as donor solutions. 1,100 mg bupropion has been suspended in 6.0 ml propylene glycol and was vortexed at 90 rpm for 68 hrs at 32° C. in a thermostated shaking cupboard. Controls have been done every 24 hrs to assure that sufficient undissolved drug was in the vessel. Thereafter the suspension was centrifuged (3,000 rpm) for 10 minutes and the clear supernatant was used as saturated solution.
For the diffusion experiments the donor solutions were freshly prepared for each experiment, 550 mg of the bupropion base were suspended in 3.0 ml propylene glycol (PG) and treated as previously described.
A spectroflow 400 pump (Separations, Hendrik Ido Ambacht, The Netherlands) was used to deliver the mobile phase, consisting of acetronitrile 0.1 m KF2 PO4 pH3 20:80 (v/v) with a flow rate of 0.8 ml/min. The mobile phase was degassed with a vacuum pump and chromatography was performed at ambient temperature. Sample amounts of 20 μl were injected with a Gilson model 321 autosampler (Gilson Middleton, Wisconsin USA) with a 20 microliter loop built in onto a inertsil 5 ODS column (Chrompack Nederland BV, Bergen op Zoom, The Netherlands). […] Bupropion base was detected by UV absorption at 310 nm using a spectra 100 spectrophometer (Spectra-Physics, Breda, The Netherlands). […]

[10] = dog, cited from earlier work
[11] = dogs; cited from earlier work
[12] = rat; cited from earlier work

Which results are given for `CC(NC(C)(C)C)C(=O)c1cccc(Cl)c1` (centres unmarked) [bupropion hydrochloride]?
extent of metabolism [1]: highly metabolized; extent of metabolism [2]: highly metabolized

For `CC1NC(C)(C)COC1(O)c1cccc(Cl)c1` (centres unmarked) [HB], which “AUC relative to medicament drug” value ([3]; single oral dose of bupropion) is on record?
The value was “fifteen times”.

And the “Cmax relative to medicament drug” value ([3]; single oral dose of bupropion)?
Its value is “three times”.

What about the “speed of appearance in the systemic circulation relative to parent” value ([3]; single oral dose) of the same compound?
The value was “almost as fast”.

What about the activity in mice (mice) of the same compound?
Its activity in mice is “have shown activity in mice”.

And the “antidepressive effect potency relative to parent medicament” value [4]?
Its value is “half as potent”.

Which “Half-lives (t1/2app)” value [5] does the source give for `C[C@@H](NC(C)(C)C)[C@H](O)c1cccc(Cl)c1` (relative stereo) [TB] here?
The value was 38.8 ± 7.6 h.

What about the “kinetics relative to MM” value ([3]; in vivo, po) of the same compound?
The value was “parallel that of MM”.

What about the activity in mice (mice) of the same compound?
The activity in mice was “have shown activity in mice”.

And the “antidepressive effect potency relative to parent medicament” value [4]?
Its value is “half as parent medicament”.

What does the source list for `CC(NC(C)(C)C)C(=O)c1cccc(Cl)c1` (centres unmarked) [carbon 14 bupropion]?
excreted unchanged [6]: less than 0.5%; radioactivity recovered in the feces [6]: 10%; radioactivity recovered in the urine [6]: 87%

With `C[C@H](NC(C)(C)C)[C@H](O)c1cccc(Cl)c1` (relative stereo) [EB] as the compound, how does the “Half-lives (t1/2app)” value [5] read?
The value was 61.4 ± 21.6 h.

And the “quantifiability after oral dose” value ([3]; in vivo, po)?
The value was “not quantifiable”.

And the activity in mice (mice)?
Its activity in mice is “have shown activity in mice”.

Which “quantifiability after oral dose” value ([3]; in vivo, po) does the source give for `C[C@H](NC(C)(C)CO)[C@H](O)c1cccc(Cl)c1` (relative stereo) [erythro amino diol] here?
The value was “not quantifiable”.

What about the activity in mice (mice) of the same compound?
Its activity in mice is “have shown activity in mice”.

What does the source list for `CC(NC(C)(C)C)C(=O)c1cccc(Cl)c1` (centres unmarked) [bupropion]?
reduction (induction of own metabolism) ([7]; over ten days): 58%; induction of its own metabolism [7]: induces its own metabolism; half-life change after multiple dosing ([5]; elderly patients, after multiple dosing): did not change significantly; first pass metabolism ([3]; in vivo): very rapid first pass metabolism; dose proportionality of drug blood concentration ([3]; oral dosage, 100 to 250 mgs): dose proportional from 100 to 250 mgs; biological half life ([3]; oral dosage): approximately 14 hours; biological half life, range ([3]; oral dosage): 8-24 hours; time at which Cmax occurs ([3]; oral dosage): approximately 2 hours; oral dose kinetics model ([3]; single oral dose): best described by a 2 compartment open model with first order absorption; absolute bioavailability [8]: five to twenty; bound to albumin (albumin): 80%; drug content of 80% saturated solution [9]: 104 mg/ml PG; reductions (induction of own metabolism) ([10]; two different dose levels, over one year of treatment): 76% and 90%; induction of its own metabolism [10]: induces its own metabolism; absolute bioavailability [11]: five to twenty; induction of its own metabolism [12]: induces its own metabolism
